The data set in a line: Solubility of the penem free acid in water. It counts as physicochemical.

Structures are written as SMILES.

Data on one molecule can be found in patent US4774238A, “Heterocyclic-methylene-penems” (Beecham Group plc, priority 1985, dated 1988).

For `Cn1cc(/C=C2/C(=O)N3C(C(=O)O)=CS[C@H]23)nn1` [penem free acid, Crystalline (5R) (Z)-6-(1-Methyl-1,2,3-triazol-4-ylmethylene)penem-3-carboxylic acid], the solubility in water result is “only sparingly soluble”.
